Measured values published in US11352604B2, “Method of making cardiomyocytes from human pluripotent cells” (Wisconsin Alumni Research Foundation, priority 2016, dated 2022).

Assays:
[1] = test system: hPSC-derived cardiac progenitors and hPSC-CMs; experiment: RT-qPCR gene expression in progenitors or cardiomyocytes; format: cell-based, human
Method: Frozen cell pellets from progenitors or cardiomyocytes in the 19-9-11 iPS cell line were thawed and RNA isolated using RNeasy spin columns with on-column DNase treatment according to the manufacturer's instructions (Qiagen). 500 ng of isolated RNA was used as template for reverse transcription using Biorad iScript RT supermix according to the manufacturer's instructions. 2.5 ng of derived cDNA was then used as template in qPCR with Taqman® primers bearing FAM-MGB dyes for genes of interest in a 20 μL reaction with Taqman® universal PCR supermix and the manufacturer's recommended cycling conditions (Thermo Fisher Scientific).

cTnT isoforms = experiment: Top-down mass spectrometry of cTnT isoforms (adult to fetal AUC ratio); format: cell-based, human; conditions: DAPT day 3-16
Method: Freshly isolated CMs from the H9-cTnT-GFP (FIG. 1) or 19-9-11 (FIG. 2) hPSC cell lines were washed with Ca^2+-free DPBS and centrifuged at 1,100 g for 5 minutes (min) and the wash solvent was removed. The cells were first homogenized in 50 μl HEPES solution (25 mM HEPES, pH 7.4, 2.5 mM EDTA, 100 mM NaF, 1 mM DTT, 10 mM L-methionine, 1 mM PMSF, 1 mM Na3VO4, protease inhibitor (Abcam) and phosphatase inhibitors). The homogenates were centrifuged at 17,000 g for 20 min and the HEPES extract containing predominately cytosolic proteins was collected. The remaining pellets were homogenized in 40 μl trifluoroacetic acid (TFA) solution (1% TFA, 5 mM tris(2-carboxyethyl)phosphine, 5 mM L-methionine) and centrifuged at 17,000 g for 20 min. The TFA extract containing predominantly the sarcomeric proteins was collected. Bradford protein assays were performed to determine the protein concentration. The sarcomeric protein-enriched extracts were diluted to 100 ng/μl for Liquid chromatography (LC)-MS analysis.
500 ng of each sarcomeric protein-enriched extract was injected to a home-packed reverse phase chromatography (RPC) column (PLRP-S, 10 μm particle size, 1000 A pore size, 500 μm inner diameter, 25 cm long), and the proteins were separated with a gradient of 5-95% mobile phase B (0.1% formic acid in 50:50 acetonitrile:ethanol) (mobile phase A: 0.1% formic acid in H2O) at a constant flowrate of 12 μl/min. The eluting proteins were analyzed by a high-resolution quadrupole-time of flight (q-TOF) mass spectrometer (Impact II, Bruker Daltonics) via electrospray ionization. The mass spectra were collected at a scan rate of 0.5 Hz for all samples being analyzed. Analyses of top-down mass spectra were performed using the vender-specific software DataAnalysis 3.2 (Bruker Daltonics).
Quantification of the sarcomeric protein isoforms was performed as previously described. […] The area under curve (AUC) of the EIC of a specific protein isoform represents the abundance of the selected protein isoform. […] Relative quantification of protein isoform expression was measured by the ratio of the AUCs.

hPSC-CMs [2] = experiment: Optical action potential measurement (RH237); format: cell-based, human; conditions: DAPT day 3-16
Method: After hPSC-CM dissociation, day 30 to 60 lactate-purified hPSC-CMs from the 19-9-11 cell line were plated as 80 μL drops on areas of cover glass previously coated in drops of Synthemax® working solution of 80 μL (Corning) in the K20/2 dissociation and replating technique described above. After at least two days in K2 medium, the fast-equilibrating voltage-sensitive dye RH237 at 1 μM was added and live cells imaged in the cover glass in a Leica confocal microscope. Video files of individual cells were taken and filtered with the 50th FIR filter at a cutoff frequency of 128 Hz. The resulting action potentials were analyzed for rise time and voltage velocity in MATLAB. Individual cells were considered as replicates for statistical purposes and came from 4 cell preparations.

[3] = test system: day 5 cardiac progenitor cells; experiment: Propidium iodide cell cycle flow cytometry; format: cell-based, human; conditions: DAPT with pI:C, day 5
Method: Propidium iodide staining was performed on ethanol-fixed cells of the 19-9-11 iPS cell line with a low flow rate and linear mode fluorescence according to a previously published protocol (Darzynkiewicz and Juan, 2001).

hPSC-CMs [4] = experiment: Cardiomyocyte yield and purity in GiWi differentiation; format: cell-based, human; conditions: DAPT early (day 3-5 or 3-7) and extended (day 3-10 or 3-16)
Method: To differentiate cardiomyocytes from hPSCs, the small molecule temporal modulation of the Wnt pathway (GiWi) monolayer protocol was used essentially as previously described (Lian et al., 2012). Human embryonic or induced pluripotent stem cells were dissociated with Versene (Thermo Fisher Scientific) for 6 minutes at 37° C., pipetted up and down 40 times, counted with a hemocytometer, spun down at 100×g for 5 minutes, and resuspended and seeded for differentiation at 1.5 million cells per well in 6 well plates or 0.4 million per well in 12 well plates in mTeSR® on stem-cell verified Matrigel® (WiCell) containing 10 μM Y-27632 ROCK-inhibitor (Tocris). After four days in mTeSR® (WiCell), at which point cells grew to 100 percent confluence, medium was switched to RPMI supplemented with B27 supplement not containing insulin (Thermo Fisher Scientific) and containing 12 μM of the Wnt agonist CHIR99021 (Tocris) for exactly 24 hours. Media was then changed to RPMI supplemented with B27 not containing insulin for exactly 48 hours. Then medium was then switched at day 3 to RPMI supplemented with B27 not containing insulin and containing 5 μM IWP2 (Tocris). At day 5, media was switched to RPMI supplemented with B27 not containing insulin for two days. At day 7 and every three days afterward, medium was replaced with RPMI supplemented with B27 containing insulin (Thermo Fisher Scientific). […]

hPSC-CMs [5] = experiment: Cardiomyocyte yield from dissociated and replated progenitors; format: cell-based, human; conditions: DAPT
Method: For dissociation of day 5 cells (for destructive analyses or live cell replating experiments), progenitors were dissociated with Versene (Thermo Fisher Scientific) for 10 minutes at 37° C., pipetted up and down 40 times, and then neutralized 1:1 v/v versene solution with “K20” medium (DMEM/F12 with 1×NEAA, 1× Glutamine, 0.1 mM (3-mercaptoethanol, and 20% Knockout Serum Replacer by volume, all Thermo Fisher Scientific). For destructive analyses, pellets were made by centrifugation at 1.1×1000 g for 5 minutes, aspiration of medium supernatant, snap-freezing in liquid nitrogen, and kept at −80° C. for until pellet lysis for DNA, protein, or RNA isolation.
For replating of progenitors and microtissue formation, after neutralization and cell counting, 0.8 million day-5 progenitors per well were spun down at 100×g as above and resuspended and plated in 1 mL K20 with 10 μM Y-27632 ROCK-inhibitor (Tocris) into Synthemax® II-SC coated 12 well plates (Corning). Media was then changed daily in 2 mL of “K2” (same formulation as K20 above, but with just 2% Knockout Serum Replacer), and changed daily. Differentiating hPSC-CMs from replated progenitors in this protocol beat by day 8 to 12.

[6] = test system: hPSC-CM sheets from replated progenitors; experiment: Video edge detection / beating analysis of cardiomyocyte sheets; format: cell-based, human; conditions: DAPT present day3-day20
Method: (§1) For quantification of spatial regularity and graphical presentation of time averaged beating in microtissue from the H9-cTnT-GFP (FIGS. 9A, C) or 19-9-11 (FIG. 9B) cell lines, .avi video files of low-powered (2.5× magnification) fields were recorded at a resolution of 1268×720 and a frame rate of 20/second. These videos were exported into a series of sequential .tiff files using Adobe Premiere, and then analyzed in MATLAB using previously described coding algorithms (Huebsch et al., 2015). Calculations of beat rate (before and after ivrabradine, […] for 2 hours, Sigma) were performed manually in the 19-9-11 cell line and multifocal patterns in untreated progenitor-derived sheets were represented as the average rate of beating for all foci present in a field.

H9-TnT-GFP hPSC-CMs = experiment: cTnT-GFP reporter imaging of hPSC-CMs after NFκB inhibition; format: cell-based, human; conditions: QNZ day 3-5 concurrent with pI:C
Method: Antibodies: NFKappaB (Abcam) and phosphorylated IKappaB (Abcam). Antibodies were used at a dilution of 1:1000. NF-κB inhibitor: 40 nM QNZ (Selleckchem).

NF-κB activation = conditions: cited from earlier work
HCN4 channel = molecular target: T1, HCN4 channel (Homo sapiens, UniProt Q9Y3Q4); experiment: Spontaneous beat rate of cardiomyocyte sheets before and after ivrabradine; format: cell-based
T1 construct: endogenous in cells; host or cells: replated progenitor-derived cardiomyocyte sheets, 19-9-11 iPS cell line
T1 sequence (Q9Y3Q4 1-1203): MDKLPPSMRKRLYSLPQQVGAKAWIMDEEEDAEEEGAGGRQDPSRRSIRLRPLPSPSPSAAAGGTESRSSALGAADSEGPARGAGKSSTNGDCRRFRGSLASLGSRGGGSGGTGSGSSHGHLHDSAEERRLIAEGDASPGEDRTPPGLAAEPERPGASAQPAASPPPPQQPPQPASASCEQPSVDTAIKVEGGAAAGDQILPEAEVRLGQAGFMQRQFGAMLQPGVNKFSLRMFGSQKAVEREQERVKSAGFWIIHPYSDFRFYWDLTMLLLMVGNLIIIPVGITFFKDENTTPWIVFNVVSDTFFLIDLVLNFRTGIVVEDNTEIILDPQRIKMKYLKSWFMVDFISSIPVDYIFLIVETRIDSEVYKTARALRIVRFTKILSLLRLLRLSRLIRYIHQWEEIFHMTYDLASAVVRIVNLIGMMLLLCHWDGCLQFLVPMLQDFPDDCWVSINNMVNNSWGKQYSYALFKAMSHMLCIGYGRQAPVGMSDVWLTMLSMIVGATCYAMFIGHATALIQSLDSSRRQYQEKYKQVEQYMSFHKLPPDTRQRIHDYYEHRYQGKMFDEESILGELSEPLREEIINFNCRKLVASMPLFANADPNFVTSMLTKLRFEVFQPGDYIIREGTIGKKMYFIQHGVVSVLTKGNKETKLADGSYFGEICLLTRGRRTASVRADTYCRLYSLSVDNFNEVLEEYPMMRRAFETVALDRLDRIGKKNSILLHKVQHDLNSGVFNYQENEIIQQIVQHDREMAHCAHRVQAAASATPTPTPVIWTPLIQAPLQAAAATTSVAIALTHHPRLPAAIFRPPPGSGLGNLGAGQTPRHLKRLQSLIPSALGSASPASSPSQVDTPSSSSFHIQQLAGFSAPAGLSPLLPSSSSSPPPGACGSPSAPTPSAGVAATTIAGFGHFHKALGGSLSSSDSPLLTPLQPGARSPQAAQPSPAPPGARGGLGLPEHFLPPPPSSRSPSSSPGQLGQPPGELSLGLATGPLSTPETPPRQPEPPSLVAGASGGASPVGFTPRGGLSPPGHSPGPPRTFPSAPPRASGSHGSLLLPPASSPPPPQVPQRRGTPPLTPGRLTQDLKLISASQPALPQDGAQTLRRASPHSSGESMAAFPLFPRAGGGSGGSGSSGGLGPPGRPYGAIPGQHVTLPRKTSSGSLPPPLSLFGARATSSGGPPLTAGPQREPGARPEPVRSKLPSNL
Method: as §1

C[C@H](NC(=O)Cc1cc(F)cc(F)c1)C(=O)N[C@H](C(=O)OC(C)(C)C)c1ccccc1 [DAPT]
effect on pI:C-increased expression of cardiomyocyte maturation genes (αMHC, cTnI, cardiac actin, ATP5a, RYR2, SERCA) ([1]; DAPT day 3-5 or day 3-16): reversed the increased expression
effect on pI:C downregulation of cardiac fibroblast genes ([1]; Notch inhibition (DAPT) with pI:C): accentuated
effect on protein isoform change toward adult cTnT 6 and 11 caused by pI:C (cTnT isoforms): abrogated
effect on increase in optical upstroke velocity (decreased rise time) from primed progenitors (hPSC-CMs [2]): blocked only with DAPT treatment from day 3-16
effect on increased cell cycle activity of primed progenitors [3]: blocked the increased cell cycle activity
effect on pI:C-increased hPSC-CM yield (hPSC-CMs [4]): blocked pI:C's effect on hPSC-CM yield
effect on increased yield from replated primed progenitors (hPSC-CMs [5]): blocked this increased yield
contraction pattern of hPSC-CM sheets from pI:C-primed progenitors [6]: multifocal and disorganized without forming waves of contraction

Nc1ccc2ncnc(NCCc3ccc(Oc4ccccc4)cc3)c2c1 [QNZ]
effect on pI:C-increased maturation gene expression ([1]; day 20 pPSC-CM, QNZ with pI:C): reversed
effect on formation of TnT-GFP positive cardiomyocyte collections after pIC treatment (H9-TnT-GFP hPSC-CMs): blocked the generation of large collections of TnT-GFP positive cardiomyocytes
inhibitory activity toward both NF-κB activation and TNF-α production (NF-κB activation): potent inhibitory activity

COc1cc2c(cc1OC)CC(=O)N(CCCN(C)C[C@H]1Cc3cc(OC)c(OC)cc31)CC2 [ivrabradine]
effect on spontaneous contractions (HCN4 channel; cardiomyocyte sheets from primed progenitors, 5 μm for 2 hours): blocked the spontaneous contractions
effect on beat rate (HCN4 channel; cardiomyocyte sheets from untreated progenitors, 5 μM for 2 hours): little effect
